pEC50: −log10 of the molar value. The source made the active and inactive calls. No cut-off for these calls is given here.
How the values were obtained:
Estrogen receptor [1] = molecular target: T1, Estrogen receptor (Homo sapiens, UniProt P03372); assay: Antagonist activity at human estrogen receptor-alpha by yeast two-hybrid assay in presence of SRC1
T1 sequence (P03372 whole entry): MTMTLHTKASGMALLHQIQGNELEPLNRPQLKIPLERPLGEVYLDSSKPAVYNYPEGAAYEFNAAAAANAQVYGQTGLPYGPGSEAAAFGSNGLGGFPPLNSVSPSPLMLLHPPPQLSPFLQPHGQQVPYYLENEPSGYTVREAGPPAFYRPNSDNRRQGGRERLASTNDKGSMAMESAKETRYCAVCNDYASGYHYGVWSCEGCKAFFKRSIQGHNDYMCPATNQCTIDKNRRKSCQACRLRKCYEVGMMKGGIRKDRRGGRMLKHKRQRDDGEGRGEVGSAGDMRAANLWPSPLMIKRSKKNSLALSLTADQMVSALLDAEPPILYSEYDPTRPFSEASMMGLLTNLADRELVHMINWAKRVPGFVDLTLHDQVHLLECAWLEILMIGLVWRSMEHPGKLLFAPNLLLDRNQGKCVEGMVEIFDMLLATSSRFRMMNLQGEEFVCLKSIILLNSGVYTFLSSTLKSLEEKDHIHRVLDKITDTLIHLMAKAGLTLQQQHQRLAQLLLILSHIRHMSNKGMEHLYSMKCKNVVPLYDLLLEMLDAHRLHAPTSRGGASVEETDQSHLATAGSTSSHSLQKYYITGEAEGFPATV

Estrogen receptor beta [2] = molecular target: T2, Estrogen receptor beta (Homo sapiens, UniProt Q92731)
T2 sequence (Q92731 whole entry): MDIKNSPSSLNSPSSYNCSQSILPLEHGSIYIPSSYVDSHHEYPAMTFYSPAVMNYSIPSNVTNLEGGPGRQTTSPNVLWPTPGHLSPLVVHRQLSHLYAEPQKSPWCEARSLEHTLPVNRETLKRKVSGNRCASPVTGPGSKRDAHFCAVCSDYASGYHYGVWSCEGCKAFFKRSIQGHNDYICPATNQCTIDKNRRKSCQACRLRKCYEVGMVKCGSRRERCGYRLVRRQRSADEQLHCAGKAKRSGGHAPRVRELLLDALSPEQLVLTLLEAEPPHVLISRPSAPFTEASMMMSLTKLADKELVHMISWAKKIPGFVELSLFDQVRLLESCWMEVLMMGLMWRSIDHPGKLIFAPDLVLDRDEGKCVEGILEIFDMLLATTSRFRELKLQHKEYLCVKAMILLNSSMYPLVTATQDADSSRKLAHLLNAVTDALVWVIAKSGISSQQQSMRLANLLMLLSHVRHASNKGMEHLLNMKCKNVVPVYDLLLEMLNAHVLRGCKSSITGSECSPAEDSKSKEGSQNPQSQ
Description: Antagonist activity at human estrogen receptor-beta by yeast two-hybrid assay in presence of SRC1

[3] = molecular target: T3, Estrogen receptor (Homo sapiens) (UniProt P03372); assay: Antagonist activity at human estrogen receptor-alpha at 25 uM by yeast two-hybrid assay in presence of SRC1
T3 sequence (whole entry): T1 sequence (P03372 whole entry)

Estrogen receptor [4] = molecular target: T1, Estrogen receptor; assay: Agonist activity at human estrogen receptor-alpha by yeast two-hybrid assay in presence of SRC1
Estrogen receptor beta [5] = molecular target: T2, Estrogen receptor beta; remark: listed apart in the source
Description: Agonist activity at human estrogen receptor-beta by yeast two-hybrid assay in presence of SRC1

Homo sapiens = species on record: Homo sapiens; assay: Selectivity ratio of EC50 for human estrogen receptor-alpha to EC50 for human estrogen receptor-beta

| Compound | pEC50 (Estrogen receptor [1]) | pEC50 (Estrogen receptor beta [2]) | also measured |
| --- | --- | --- | --- |
| C=C(C)[C@@H]1[C@@H]2O[C@@H]2[C@@H]2[C@]3(CC[C@]4(C)[C@@H]([C@H](C)CC/C=C(\C)C(=O)O)CC[C@@]24C)C[C@]13CCC(=O)O | 5.59 | 5.33 |  |
| C=C(C)[C@@H]1[C@H](O)C[C@@H]2C(=CC[C@]3(C)[C@@H]([C@H](C)CC/C=C(\C)C(=O)OC)CC[C@@]23C)[C@@]1(C)CCC(=O)O |  | 4.14 | Activity [3]: inactive |
| C=C(C)[C@@H]1[C@H](O)C[C@@H]2C(=CC[C@]3(C)[C@@H]([C@H](C)CC/C=C(\C)C(=O)O)CC[C@@]23C)[C@@]1(C)CCC(=O)O |  | 4.60 | Activity [3]: inactive |
| O=C(Cc1ccc(O)cc1)c1ccc(O)cc1O |  |  | pEC50 (Estrogen receptor [4]): 5.69; pEC50 (Estrogen receptor beta [5]): 6.30 |
| CC(C)(O)c1ccc2c(c1)C(=O)C[C@H]1[C@@](C)(C(=O)O)CCC[C@]21C | 5.09 | 5.37 |  |
| O=C(O)/C=C/c1ccc(O)cc1 [COUMARIC ACID] |  |  | pEC50 (Estrogen receptor [4]): 4.79; pEC50 (Estrogen receptor beta [5]): 5.31 |
| C/C(=C/C(=O)C[C@@H](C)[C@]1(C)CC[C@@]2(C)C3=CCC4C(C)(C)C(=O)CC[C@]4(C)[C@@H]3CCC21)C(=O)O (stereo partly drawn) | 5.08 | 5.56 |  |
| C=CCc1ccc(OC)c(-c2cc(C=O)cc(O)c2O)c1 | 4.32 | 4.31 |  |
| C=C(C)[C@@H]1[C@H](O)C[C@@H]2[C@]3(CC[C@]4(C)[C@@H]([C@H](C)CC/C=C(\C)C(=O)O)CC[C@@]24C)C[C@]13CCC(=O)O |  | 4.47 | Activity [3]: inactive |
| C/C(=C/C(=O)C[C@@H](C)[C@]1(C)CC[C@@]2(C)C3=CCC4C(C)(C)[C@H](O)CC[C@]4(C)[C@@H]3CC=C21)C(=O)O (stereo partly drawn) | 4.90 | 4.75 |  |
| CCOC(=O)c1ccc(O)cc1 [ETHYLPARABEN] |  |  | pEC50 (Estrogen receptor [4]): 4.42; pEC50 (Estrogen receptor beta [5]): 5.73; Ratio EC50 (Homo sapiens): 20 |
